Measured values: patent US20070265170A1, “DETECTION, PREVENTION AND TREATMENT OF OVARIAN CANCER” (priority 2006, published 2007)

Key:
[1] = test system: β3GlcNAcT; assay: β3GlcNAcT acceptor specificity; settings: acceptor substrate; lactose (4) = 100%
[2] = target: T1, chicken ST6GalNAc-I (Gallus gallus, UniProt Q92183); assay: chST6GalNAc-I activity on small acceptor molecules; assay type: biochemical; settings: α-D-galacto derivatives as acceptors
T1 construct: made in house; host or cells: insect cells
Description: The inventors have previously reported the cloning, expression, and characterization of chicken ST6GalNAc-I and its use in preparative synthesis of the O-linked sialoside antigens, STn-, α(2-6)SiaT-, α(2-3)SiaT- and Di-SiaT-antigen. Blixt, O.; Allin, K.; Pereira, L.; Datta, A. and Paulson, J. C., J. Am. Chem. Soc. 2002, 124, 5739-5746. Briefly, the recombinant enzyme was expressed in insect cells and purified by CDP-sepharose affinity chromatography to generate approximately 10 U/L of cell culture.

[3] = test system: anti-carbohydrate antibodies in sera of metastatic breast cancer patients; assay: Glycan array with sera of metastatic breast cancer patients; assay type: binding, human; settings: sera diluted 1:25; for binding by antibodies from metastatic breast cancer patients: 9 MBC patients; for level of serum antibodies against the glycan in MBC patients compared to healthy individuals: relative fluorescence, FIG. 8-9
Protocol: Individual (not pooled) sera were collected from 9 patients who were diagnosed with metastatic breast cancer (MBC). Blood samples were collected before treatment, so that therapeutic intervention would not interfere with patient immune responses. One patient with breast cancer but with good prognosis (IDC, Stage 1) was also included in the study. As control, or “healthy” sera, sera from ten healthy individuals, 5 female and 5 male, with no known malignancies was collected.
Sera were diluted 1:25 with PBS containing 3% BSA, and placed on the glycan array slide in humidified chamber at room temperature for 90 min. The glycan array slide was then rinsed gently with PBS/0.05% Tween, incubated with biotinylated goat antibody against human IgG, IgM and IgA, rinsed in PBS/0.05% Tween, and incubated with streptavidin-Alexa488 fluorescent dye. Following rinses in PBS/0.05% Tween and H2O, glycan array slides were dried and scanned using the commercial DNA array scanner. […] Signal to background was typically greater 50:1 and no background subtractions were performed. Data were plotted using MS Excel software.

[4] = test system: Human anti-HIV 2G12 monoclonal antibody; assay: Glycan array binding of 2G12; settings: 2G12 30 μg/mL pre-complexed with goat anti-human-IgG-FITC
Description: Glycan array fabrication.
Glycan Binding Protein binding assay.
Image acquisition and signal processing. […] Data were plotted using MS Excel software.

T1 sequence (Q92183 whole entry): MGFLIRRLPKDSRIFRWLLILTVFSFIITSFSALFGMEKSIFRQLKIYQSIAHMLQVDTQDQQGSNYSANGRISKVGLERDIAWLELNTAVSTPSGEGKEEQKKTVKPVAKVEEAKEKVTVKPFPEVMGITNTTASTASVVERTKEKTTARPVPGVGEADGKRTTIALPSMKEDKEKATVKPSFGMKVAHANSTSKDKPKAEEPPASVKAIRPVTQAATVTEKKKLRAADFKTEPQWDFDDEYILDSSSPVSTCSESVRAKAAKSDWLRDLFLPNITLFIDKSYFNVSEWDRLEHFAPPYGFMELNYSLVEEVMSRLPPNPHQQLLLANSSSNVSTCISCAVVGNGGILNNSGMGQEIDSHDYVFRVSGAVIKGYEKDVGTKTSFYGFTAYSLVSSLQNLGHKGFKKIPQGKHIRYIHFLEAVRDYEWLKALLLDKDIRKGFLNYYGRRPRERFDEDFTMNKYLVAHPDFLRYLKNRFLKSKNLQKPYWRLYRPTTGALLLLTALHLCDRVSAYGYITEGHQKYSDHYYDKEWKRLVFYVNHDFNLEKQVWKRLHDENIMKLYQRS

**Q.** How did the “Relative enzyme activity (%) β(1-3)GlcNAcT-activity” value [1] turn out when OCC1O[C@@H](O)C(O)[C@@H](O)[C@@H]1O[C@@H]1OC(CO)[C@H](O)[C@H](O)C1O (stereo partly drawn) [Compound 4] was run?
**A.** 100%

**Q.** With CC(=O)N[C@H]1C(O)O[C@H](CO)[C@H](O)[C@@H]1O (stereo partly drawn) [D-GalNAc] as the molecule, how does the “chST6GalNac-I Activity, cpm” value [2] read?
**A.** 0 cpm

**Q.** What about the “chST6GalNac-I Activity, nmol/mg × min^−1” value [2] of the same molecule?
**A.** 0.00 nmol/mg × min^−1

**Q.** Which results are given for Ab3ANb4[NNa3]Ab4Gb#sp1 GM1 [Glycan 58]?
**A.** binding by antibodies from metastatic breast cancer patients [3]: bind; level of serum antibodies against the glycan in MBC patients compared to healthy individuals [3]: higher than in the healthy individuals

**Q.** What does the source list for “Fa2Ab3Anb3Aa4Ab4G#sp3 Globo-H [Glycan 97]”?
**A.** binding by antibodies from metastatic breast cancer patients [3]: bind; level of serum antibodies against the glycan in MBC patients compared to healthy individuals [3]: higher than in the healthy individuals

**Q.** Which “binding by antibodies from metastatic breast cancer patients” value [3] does the source give for GNb3Ab4Gb#sp1 LNT-2 [Glycan 123] here?
**A.** bind

**Q.** What about the “level of serum antibodies against the glycan in MBC patients compared to healthy individuals” value [3] of the same molecule?
**A.** higher than in the healthy individuals

**Q.** With Man-9#aa Man9-aminoacid [Glycan 145] as the molecule, how does the “2G12 binding to arrayed glycan” value [4] read?
**A.** smaller level of binding

**Q.** How did the “binding by antibodies from metastatic breast cancer patients” value [3] turn out when “NJa6ANa#sp2 Neu5Gc6GalNAc (STn) [Glycan 155]” was run?
**A.** bind

**Q.** What does the source list for NNa6ANa#sp2 6SiaβGalNAc [Glycan 190]?
**A.** binding by antibodies from metastatic breast cancer patients [3]: bind; level of serum antibodies against the glycan in MBC patients compared to healthy individuals [3]: significantly higher levels

B1: Ceruloplasmine (protein, UniProt P00450 20-1065, looked up)
Ceruloplasmin: KEKHYYIGIIETTWDYASDHGEKKLISVDTEHSNIYLQNGPDRIGRLYKKALYLQYTDETFRTTIEKPVWLGFLGPIIKAETGDKVYVHLKNLASRPYTFHSHGITYYKEHEGAIYPDNTTDFQRADDKVYPGEQYTYMLLATEEQSPGEGDGNCVTRIYHSHIDAPKDIASGLIGPLIICKKDSLDKEKEKHIDREFVVMFSVVDENFSWYLEDNIKTYCSEPEKVDKDNEDFQESNRMYSVNGYTFGSLPGLSMCAEDRVKWYLFGMGNEVDVHAAFFHGQALTNKNYRIDTINLFPATLFDAYMVAQNPGEWMLSCQNLNHLKAGLQAFFQVQECNKSSSKDNIRGKHVRHYYIAAEEIIWNYAPSGIDIFTKENLTAPGSDSAVFFEQGTTRIGGSYKKLVYREYTDASFTNRKERGPEEEHLGILGPVIWAEVGDTIRVTFHNKGAYPLSIEPIGVRFNKNNEGTYYSPNYNPQSRSVPPSASHVAPTETFTYEWTVPKEVGPTNADPVCLAKMYYSAVEPTKDIFTGLIGPMKICKKGSLHANGRQKDVDKEFYLFPTVFDENESLLLEDNIRMFTTAPDQVDKEDEDFQESNKMHSMNGFMYGNQPGLTMCKGDSVVWYLFSAGNEADVHGIYFSGNTYLWRGERRDTANLFPQTSLTLHMWPDTEGTFNVECLTTDHYTGGMKQKYTVNQCRRQSEDSTFYLGERTYYIAAVEVEWDYSPQREWEKELHHLQEQNVSNAFLDKGEFYIGSKYKKVVYRQYTDSTFRVPVERKAEEEHLGILGPQLHADVGDKVKIIFKNMATRPYSIHAHGVQTESSTVTPTLPGETLTYVWKIPERSGAGTEDSACIPWAYYSTVDQVKDLYSGLIGPLIVCRRPYLKVFNPRRKLEFALLFLVFDENESWYLDDNIKTYSDHPEKVNKDDEEFIESNKMHAINGRMFGNLQGLTMHVGDEVNWYLMGMGNEIDLHTVHFHGHSFQYKHRGVYSSDVFDIFPGTYQTLEMFPRTPGIWLLHCHVTDHIHAGMETTYTVLQNEDTKSG
**Q.** Which results are given for B1?
**A.** binding by antibodies from metastatic breast cancer patients [3]: bind; level of serum antibodies against the glycan in MBC patients compared to healthy individuals [3]: significantly higher levels
